Measured values published in ChEMBL document CHEMBL1201862, “PubChem BioAssay data set” (2004).
Active and inactive are the calls of the source.

What was measured:
[1] = Luminescence Cell-Based Dose Response HTS to Identify Activators of Luciferase Translation or Activity in H4 […] Cells. [Related pubchem assays: 1829 (Project Summary), 1814 (Primary HTS)]; assay type: functional
[2] = toxicity toward HepG2 liver cells – cell-based, plate reader, cherry-pick, antagonist series, cytotoxicity control, dose response (AID 743416); assay type: functional
[3] = cells
[4] = target: T1, Sentrin-specific protease 8 (Homo sapiens, UniProt Q96LD8); assay: inhibition of human SENP8 cleavage activity – biochemical, luminescence, SAR follow-up (AID 504501); assay type: functional
T1 sequence (Q96LD8 whole entry): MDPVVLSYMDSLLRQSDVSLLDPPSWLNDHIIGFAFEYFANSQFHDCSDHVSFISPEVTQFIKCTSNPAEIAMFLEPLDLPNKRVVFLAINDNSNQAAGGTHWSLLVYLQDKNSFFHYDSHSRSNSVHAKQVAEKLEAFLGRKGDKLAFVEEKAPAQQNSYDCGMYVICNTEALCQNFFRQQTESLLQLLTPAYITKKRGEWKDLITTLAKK

[5] = target: T2, Caspase-3 (Homo sapiens, UniProt P42574); assay: SAR Analysis of small molecule inhibitors of Sentrin-specific proteases (SENPs) using a Caspase-3 Selectivity assay. [Related pubchem assays (depositor defined):AID2540, AID2599, AID434973, AID489001]; assay type: functional
T2 sequence (P42574 whole entry): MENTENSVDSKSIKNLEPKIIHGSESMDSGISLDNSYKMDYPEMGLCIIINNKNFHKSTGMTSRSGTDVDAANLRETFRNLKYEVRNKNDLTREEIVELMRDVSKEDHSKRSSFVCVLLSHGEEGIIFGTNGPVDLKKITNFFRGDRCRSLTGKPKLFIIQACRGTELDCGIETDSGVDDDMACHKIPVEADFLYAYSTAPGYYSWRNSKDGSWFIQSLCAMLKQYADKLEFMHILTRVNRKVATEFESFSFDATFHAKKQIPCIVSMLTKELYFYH

[6] = target: T3, Sentrin-specific protease 7 (Homo sapiens, UniProt Q9BQF6); assay: inhibition of human SENP7 cleavage activity – biochemical, luminescence, SAR follow-up (AID 504497); assay type: functional
T3 sequence (Q9BQF6 whole entry): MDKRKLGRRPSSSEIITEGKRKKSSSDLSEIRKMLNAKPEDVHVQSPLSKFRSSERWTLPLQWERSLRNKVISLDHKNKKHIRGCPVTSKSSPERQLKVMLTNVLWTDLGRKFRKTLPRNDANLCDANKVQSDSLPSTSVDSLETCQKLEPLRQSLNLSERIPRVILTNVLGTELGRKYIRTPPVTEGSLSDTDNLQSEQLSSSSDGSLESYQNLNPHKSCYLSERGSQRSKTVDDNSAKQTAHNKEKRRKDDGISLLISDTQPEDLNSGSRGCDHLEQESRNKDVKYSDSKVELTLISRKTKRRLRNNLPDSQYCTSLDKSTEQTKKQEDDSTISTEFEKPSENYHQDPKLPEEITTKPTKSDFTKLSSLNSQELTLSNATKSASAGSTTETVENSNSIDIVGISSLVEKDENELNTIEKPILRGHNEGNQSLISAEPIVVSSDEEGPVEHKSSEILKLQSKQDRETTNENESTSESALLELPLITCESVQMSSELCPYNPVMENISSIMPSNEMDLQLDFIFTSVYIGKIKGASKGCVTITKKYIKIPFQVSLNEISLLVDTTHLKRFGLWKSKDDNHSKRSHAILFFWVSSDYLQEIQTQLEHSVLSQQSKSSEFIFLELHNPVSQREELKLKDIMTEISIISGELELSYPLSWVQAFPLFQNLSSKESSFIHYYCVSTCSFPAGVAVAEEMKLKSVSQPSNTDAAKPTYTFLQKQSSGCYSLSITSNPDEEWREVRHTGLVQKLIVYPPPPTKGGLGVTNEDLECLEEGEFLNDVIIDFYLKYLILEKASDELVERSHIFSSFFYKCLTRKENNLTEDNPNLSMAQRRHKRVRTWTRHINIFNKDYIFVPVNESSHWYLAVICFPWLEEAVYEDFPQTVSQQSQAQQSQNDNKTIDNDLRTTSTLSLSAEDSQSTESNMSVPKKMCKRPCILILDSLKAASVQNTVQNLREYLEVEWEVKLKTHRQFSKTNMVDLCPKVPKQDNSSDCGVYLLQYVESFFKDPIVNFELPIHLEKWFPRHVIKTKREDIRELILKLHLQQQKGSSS

[7] = target: Serine/threonine-protein kinase Chk2 (Homo sapiens, UniProt O96017); assay type: functional;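 further: CHEK2 entry within a kinome-wide screening panel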
[8] = target: Tyrosine-protein kinase JAK2 (Homo sapiens, UniProt O60674); assay type: functional;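 further: JAK2 tested as one member of a kinase panel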
[9] = target: Cyclin-dependent kinase 5 (Homo sapiens, UniProt Q00535); assay type: functional;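 further: CDK5 measured as one member of a kinase profiling panel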
[10] = target: Cyclin-dependent kinase 2 (Homo sapiens, UniProt P24941); assay type: functional;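 further: CDK2 measured as one member of a broad kinome profiling panel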
[11] = target: Casein kinase I isoform delta (Homo sapiens, UniProt P48730); assay type: functional;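 further: measured as one member (CSNK1D) of a kinome panel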
[12] = target: Serine/threonine-protein kinase PAK 4 (Homo sapiens, UniProt O96013); assay type: functional;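 further: value obtained within a kinome profiling panel in which PAK4 was one of the panel members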
[13] = target: Dual specificity tyrosine-phosphorylation-regulated kinase 3 (Homo sapiens, UniProt O43781); assay type: functional;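 further: measured as one member of a broad kinase panel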
[14] = target: Mitogen-activated protein kinase kinase kinase kinase 4 (Homo sapiens, UniProt O95819); assay type: functional
[15] = target: Serine/threonine-protein kinase D3 (Homo sapiens, UniProt O94806); assay type: functional;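 further: determined within a kinase panel screen, with PRKCN as the panel member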
[16] = target: Serine/threonine-protein kinase pim-3 (Homo sapiens, UniProt Q86V86); assay type: functional;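 further: value obtained as one member of a broad kinase panel profiling effort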
[17] = target: Kappa-type opioid receptor (Homo sapiens, UniProt P41145); assay type: functional
[18] = target: Delta-type opioid receptor (Homo sapiens, UniProt P41143); assay: HTS Image-Based Screen for Antagonists of the DOR Receptor. [Related pubchem assays (depositor defined):AID1777, AID1785, AID1786, AID2133]; assay type: functional;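 further: U2OS cells expressing DOR stimulated with 100 nM SNC80 agonist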
[19] = Trypanosoma cruzi growth suppression in host cells – NIH3T3 host cells, beta-gal luminescence, confirmation (AID 2044); assay type: functional, cell-based;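 further: intracellular parasites grown in NIH/3T3 mouse fibroblasts as host cells; luminescent beta-galactosidase reporter signal from transgenic T. cruzi replicating inside host cells; inhibitors lower the luminescence signal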
[20] = HEK-293T viability loss after treatment – luminescence, T-cell screen hits, cytotoxicity control for TCR NF-kB inhibitor project, dose response (AID 489026); assay type: functional, cell-based;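 further: cells exposed to compound about 14 hours before the viability readout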

Chain of Dual specificity tyrosine-phosphorylation-regulated kinase 3 (O43781 whole entry): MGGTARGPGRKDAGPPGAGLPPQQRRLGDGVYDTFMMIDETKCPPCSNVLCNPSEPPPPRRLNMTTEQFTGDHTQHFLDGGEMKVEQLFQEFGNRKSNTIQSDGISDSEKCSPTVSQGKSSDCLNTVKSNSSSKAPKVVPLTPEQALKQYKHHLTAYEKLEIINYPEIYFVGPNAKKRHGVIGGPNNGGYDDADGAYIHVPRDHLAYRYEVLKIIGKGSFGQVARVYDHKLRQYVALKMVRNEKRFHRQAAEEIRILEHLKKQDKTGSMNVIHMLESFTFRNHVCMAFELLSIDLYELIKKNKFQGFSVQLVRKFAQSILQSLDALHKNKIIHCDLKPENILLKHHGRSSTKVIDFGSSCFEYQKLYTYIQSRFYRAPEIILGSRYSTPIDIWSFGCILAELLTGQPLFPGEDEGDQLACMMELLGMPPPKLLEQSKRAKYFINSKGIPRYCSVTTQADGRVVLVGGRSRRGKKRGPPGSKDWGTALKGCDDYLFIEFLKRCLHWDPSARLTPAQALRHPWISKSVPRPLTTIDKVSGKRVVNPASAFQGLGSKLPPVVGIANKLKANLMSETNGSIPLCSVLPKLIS
Chain of Serine/threonine-protein kinase Chk2 (O96017 whole entry): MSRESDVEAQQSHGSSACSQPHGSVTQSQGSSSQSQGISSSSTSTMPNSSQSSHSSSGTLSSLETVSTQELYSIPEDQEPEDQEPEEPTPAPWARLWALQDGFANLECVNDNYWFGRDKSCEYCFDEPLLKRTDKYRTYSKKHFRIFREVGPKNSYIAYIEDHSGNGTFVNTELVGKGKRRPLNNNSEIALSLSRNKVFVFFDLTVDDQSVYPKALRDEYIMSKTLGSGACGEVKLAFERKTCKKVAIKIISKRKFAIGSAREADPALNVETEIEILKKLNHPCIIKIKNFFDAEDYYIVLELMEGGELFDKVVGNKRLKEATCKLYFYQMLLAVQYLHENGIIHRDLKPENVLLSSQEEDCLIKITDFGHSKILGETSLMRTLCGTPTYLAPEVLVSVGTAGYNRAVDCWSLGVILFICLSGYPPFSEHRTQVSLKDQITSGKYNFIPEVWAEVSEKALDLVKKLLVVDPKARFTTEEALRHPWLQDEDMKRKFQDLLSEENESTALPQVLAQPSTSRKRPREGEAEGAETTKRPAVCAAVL
Chain of Tyrosine-protein kinase JAK2 (O60674 whole entry): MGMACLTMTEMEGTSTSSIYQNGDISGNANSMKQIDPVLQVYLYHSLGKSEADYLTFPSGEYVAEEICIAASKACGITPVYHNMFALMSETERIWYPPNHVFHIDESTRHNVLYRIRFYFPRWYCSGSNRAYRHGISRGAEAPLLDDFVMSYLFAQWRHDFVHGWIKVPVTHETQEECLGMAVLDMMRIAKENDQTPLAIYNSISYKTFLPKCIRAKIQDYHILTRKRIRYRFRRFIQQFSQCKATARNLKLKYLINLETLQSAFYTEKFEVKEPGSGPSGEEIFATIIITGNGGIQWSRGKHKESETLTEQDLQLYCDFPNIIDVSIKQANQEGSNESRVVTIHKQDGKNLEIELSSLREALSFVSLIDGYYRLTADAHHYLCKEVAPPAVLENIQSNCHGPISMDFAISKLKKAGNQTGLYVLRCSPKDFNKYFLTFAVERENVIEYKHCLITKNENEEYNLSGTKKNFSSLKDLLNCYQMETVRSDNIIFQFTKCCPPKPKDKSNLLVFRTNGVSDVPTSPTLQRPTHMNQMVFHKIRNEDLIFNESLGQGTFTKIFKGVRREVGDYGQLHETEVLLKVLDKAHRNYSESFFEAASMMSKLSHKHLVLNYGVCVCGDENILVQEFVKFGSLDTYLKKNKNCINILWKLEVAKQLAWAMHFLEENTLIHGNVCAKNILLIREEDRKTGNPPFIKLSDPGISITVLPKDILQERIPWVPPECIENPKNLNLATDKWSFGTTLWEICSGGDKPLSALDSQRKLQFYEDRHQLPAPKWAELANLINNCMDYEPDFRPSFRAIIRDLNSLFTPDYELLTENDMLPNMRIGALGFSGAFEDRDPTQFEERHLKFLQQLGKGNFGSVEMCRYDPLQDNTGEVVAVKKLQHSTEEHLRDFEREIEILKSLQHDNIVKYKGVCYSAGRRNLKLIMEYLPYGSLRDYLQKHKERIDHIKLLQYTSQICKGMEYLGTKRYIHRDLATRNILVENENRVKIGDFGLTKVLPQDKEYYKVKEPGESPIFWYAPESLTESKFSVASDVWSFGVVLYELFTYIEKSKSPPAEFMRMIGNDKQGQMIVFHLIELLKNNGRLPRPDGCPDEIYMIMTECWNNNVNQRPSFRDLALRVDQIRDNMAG
Chain of Cyclin-dependent kinase 5 (Q00535 whole entry): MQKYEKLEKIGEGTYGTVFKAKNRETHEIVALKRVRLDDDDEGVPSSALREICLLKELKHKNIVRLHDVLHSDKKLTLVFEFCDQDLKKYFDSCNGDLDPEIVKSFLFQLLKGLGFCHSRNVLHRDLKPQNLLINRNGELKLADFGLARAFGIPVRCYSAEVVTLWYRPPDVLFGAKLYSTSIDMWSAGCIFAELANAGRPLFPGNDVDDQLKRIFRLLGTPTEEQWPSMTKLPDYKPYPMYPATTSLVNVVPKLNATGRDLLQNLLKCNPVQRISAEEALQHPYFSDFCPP
Chain of Serine/threonine-protein kinase PAK 4 (O96013 whole entry): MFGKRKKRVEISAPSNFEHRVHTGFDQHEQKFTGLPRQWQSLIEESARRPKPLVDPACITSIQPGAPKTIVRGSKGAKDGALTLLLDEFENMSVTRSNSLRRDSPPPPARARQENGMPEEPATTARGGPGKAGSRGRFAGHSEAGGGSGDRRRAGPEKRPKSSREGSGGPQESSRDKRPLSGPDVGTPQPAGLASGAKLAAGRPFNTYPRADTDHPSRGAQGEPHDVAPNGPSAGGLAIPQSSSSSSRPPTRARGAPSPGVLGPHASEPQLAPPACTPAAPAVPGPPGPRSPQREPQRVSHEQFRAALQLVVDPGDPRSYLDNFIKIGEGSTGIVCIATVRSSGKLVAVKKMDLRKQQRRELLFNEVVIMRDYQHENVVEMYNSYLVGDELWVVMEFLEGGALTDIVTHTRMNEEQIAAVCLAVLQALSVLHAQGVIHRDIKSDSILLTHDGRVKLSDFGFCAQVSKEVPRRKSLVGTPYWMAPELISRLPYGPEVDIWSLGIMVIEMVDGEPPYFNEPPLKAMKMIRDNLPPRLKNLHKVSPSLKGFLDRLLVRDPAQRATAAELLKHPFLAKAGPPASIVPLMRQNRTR
Chain of Kappa-type opioid receptor (P41145 whole entry): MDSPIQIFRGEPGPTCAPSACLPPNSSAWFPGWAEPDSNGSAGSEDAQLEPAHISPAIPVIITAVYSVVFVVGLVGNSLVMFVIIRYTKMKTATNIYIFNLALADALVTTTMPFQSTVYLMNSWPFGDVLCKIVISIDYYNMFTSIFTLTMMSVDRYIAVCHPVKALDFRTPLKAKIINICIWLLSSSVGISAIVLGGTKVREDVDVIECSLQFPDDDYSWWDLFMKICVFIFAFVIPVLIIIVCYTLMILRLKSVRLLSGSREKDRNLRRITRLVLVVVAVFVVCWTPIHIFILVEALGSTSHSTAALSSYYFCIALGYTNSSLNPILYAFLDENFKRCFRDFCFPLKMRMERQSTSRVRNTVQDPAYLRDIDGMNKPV
Chain of Casein kinase I isoform delta (P48730 whole entry, canonical isoform): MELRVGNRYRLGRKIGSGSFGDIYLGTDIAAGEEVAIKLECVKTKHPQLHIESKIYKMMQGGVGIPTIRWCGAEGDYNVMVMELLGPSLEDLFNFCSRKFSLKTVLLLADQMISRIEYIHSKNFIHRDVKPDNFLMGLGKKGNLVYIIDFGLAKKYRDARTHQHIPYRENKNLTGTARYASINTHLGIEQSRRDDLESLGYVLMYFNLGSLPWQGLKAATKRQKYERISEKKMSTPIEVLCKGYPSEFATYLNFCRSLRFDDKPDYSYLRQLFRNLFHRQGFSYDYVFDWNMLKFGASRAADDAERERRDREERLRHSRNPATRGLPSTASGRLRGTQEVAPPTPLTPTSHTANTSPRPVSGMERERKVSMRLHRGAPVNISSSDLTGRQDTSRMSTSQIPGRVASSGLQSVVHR
Chain of Delta-type opioid receptor (P41143 whole entry): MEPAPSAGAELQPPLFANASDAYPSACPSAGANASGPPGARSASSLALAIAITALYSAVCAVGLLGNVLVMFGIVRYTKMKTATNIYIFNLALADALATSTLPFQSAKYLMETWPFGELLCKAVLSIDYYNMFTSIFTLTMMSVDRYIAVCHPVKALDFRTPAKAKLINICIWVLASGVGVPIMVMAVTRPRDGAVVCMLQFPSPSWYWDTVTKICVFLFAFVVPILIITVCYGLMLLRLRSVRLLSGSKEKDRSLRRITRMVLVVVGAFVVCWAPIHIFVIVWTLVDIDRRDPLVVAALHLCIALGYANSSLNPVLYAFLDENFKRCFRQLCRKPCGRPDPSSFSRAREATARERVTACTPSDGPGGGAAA

## CN(C)c1ncc(C2=C(Cl)C(=O)C(N3CCCC3)=C(Cl)C2=O)s1
[1]
  EC50: 13.7 µM (active)

## Cc1cnc(NC(=O)c2sc3ccccc3c2Cl)s1
[2]
  AC50: > 52 µM (inactive)
[3]
  EC50: > 67.5 µM (inactive)
[4]
  IC50: 3.78 µM (active)
[5]
  IC50: 3.14 µM (active)
[6]
  IC50: 1.77 µM (active)

## O=C1NC(=S)SC1=C1C(=O)Nc2ccc(Br)cc21
[7]
  Ki: 1.26 µM (active)
[8]
  Ki: > 1.58 µM (inactive)
[9]
  Ki: > 10 µM (inactive)
[10]
  Ki: > 7.94 µM (inactive)
[11]
  Ki: 5.01 µM (active)
[12]
  Ki: > 5.01 µM (inactive)
[13]
  Ki: > 6.31 µM (inactive)
[14]
  Ki: 0.631 µM (active)
[15]
  Ki: > 10 µM (inactive)
[16]
  Ki: 0.0501 µM (active)

## Cc1ccc(Nc2cc(C)nn2-c2nc(C)cc(O)n2)cc1
[17]
  IC50: 0.747 µM (active)
[18]
  IC50: > 32 µM (inactive)
[19]
  EC50: < 0.1 µM (active)
[20]
  IC50: > 80 µM (inactive)
